From patent publication US20080132417A1, “Molecular Basis For The Identification Of Chemotherapy Resistance In Human Tumors And The Treatment Thereof” (THE UAB RESEARCH FOUNDATION, priority 2004, published 2008) come the findings set out here.

Holding throughout (assay type): cell-based, human
Test [1] concerns SW948CPTH cells. In words: Cell proliferation assay, cross-resistance of SW948CPTH. The note with it: for IC50: Homo sapiens, read-out: mean IC50 dose, SW948CPTH; for cross-resistance of SW948CPTH cells (in words): compared to SW948; for mean IC50 dose, SW948CPTH: SW948CPTH cells, without CPT-11 for >22 days, 24 h drug exposure, counted day 4, mean ± SD; for fold change, SW948CPTH: fold change of IC50 vs SW948 (in brackets). On the procedure: (§1) Determination of cross-resistance was determined by cell proliferation assay. SW948, SW948CPTH or SW948CPTL cells were plated in 24-well tissue culture plates and allowed to grow for 24 h at which time the drugs were added at various doses ranging from 0-80 μg/ml. Then 24 h later, the culture medium was removed, and the cells were washed once with PBS followed by the addition of drug-free culture medium. Cells were counted on day 4 using a cell counter (Beckman Coulter, Fullerton, Calif.). The data were analyzed with Microsoft Excel (Microsoft Corp., Redmond, Wash.) using an exponential regression model to determine the IC50 dose.

In test [2] the test system is SW948CPTL cells. As to the kind of experiment: Cell proliferation assay, cross-resistance of SW948CPTL. The note with it: for IC50: Homo sapiens, read-out: mean IC50 dose, SW948CPTL; for resistance of SW948CPTL cells (in words): compared to SW948; for fold change, SW948CPTL: fold change of IC50 vs SW948 (in brackets); for mean IC50 dose, SW948CPTL: SW948CPTL cells, without CPT-11 for >28 days, 24 h drug exposure, counted day 4, mean ± SD. The protocol:
as §1

For test [3], the system named is SW948 cells. As to the kind of experiment: Cell proliferation assay, sensitivity of SW948 to various drugs. The note with it: SW948 parental cells, 24 h drug exposure, cells counted day 4, mean ± SD of 1-4 assays; for IC50: Homo sapiens, read-out: mean IC50 dose, SW948. The protocol:
as §1

Values after ≈ are worked out from the molar mass of the structure shown.

In general, IC50 refers to the midpoint of a concentration-inhibition curve. `O=c1[nH]cc(F)c(=O)[nH]1` [5-FU, 5-fluorouracil]: in test [1], the IC50 was 0.54 ± 0.2 µg/mL (≈ 4.15 µM) and the “cross-resistance of SW948CPTH cells (in words)” value (from here on “cross-resistance”) is given as “No resistant”. Besides, in test [2], the IC50 is 0.75 ± 0.02 µg/mL (≈ 5.77 µM) and the “resistance of SW948CPTL cells (in words)” value is recorded as “no resistance”. In addition, the IC50 in test [3] was found to be 0.61 ± 0.1 µg/mL (≈ 4.69 µM).

As for `CC[C@@]1(O)C(=O)OCc2c1cc1n(c2=O)Cc2cc3cc(O)ccc3nc2-1` [10-OH-CPT], in test [1], the “mean IC50 dose, SW948CPTH” value stood at 1.7 ± 0.3 µg/mL; the “cross-resistance” value is “cross-resistant”; the “fold change, SW948CPTH” value was found to be 7. In test [3], the “mean IC50 dose, SW948” value is 0.25 ± 0.16 µg/mL.

Turning to `Nc1ccn([C@@H]2O[C@H](CO)[C@@H](O)C2(F)F)c(=O)n1` [Gemcitabine, gemcitabine], in test [1], the IC50 was 0.008 ± 0.004 µg/mL (≈ 0.0304 µM) and the “cross-resistance” value is on record as “No resistant”. For the same molecule, in test [2], the IC50 was 0.016 µg/mL (≈ 0.0608 µM); the “resistance of SW948CPTL cells (in words)” value was “showed resistance”; the “fold change, SW948CPTL” value is on record as 1.8. Also, the IC50 in test [3] is 0.009 ± 0.004 µg/mL (≈ 0.0342 µM).

In the case of `CCc1c2c(nc3ccc(O)cc13)-c1cc3c(c(=O)n1C2)COC(=O)[C@]3(O)CC` [SN38], in test [1], the “mean IC50 dose, SW948CPTH” value is 1.5 ± 0.13 µg/mL; the “cross-resistance” value is listed as “cross-resistant”; the “fold change, SW948CPTH” value is 8. In addition, in test [2], the “mean IC50 dose, SW948CPTL” value is 1.7 ± 0.15 µg/mL; the “resistance of SW948CPTL cells (in words)” value is “showed resistance”; the “fold change, SW948CPTL” value is on record as 9. Moreover, the “mean IC50 dose, SW948” value in test [3] was determined as 0.19 ± 0.01 µg/mL.

In the case of `CCc1c2c(nc3ccc(OC(=O)N4CCC(N5CCCCC5)CC4)cc13)-c1cc3c(c(=O)n1C2)COC(=O)[C@]3(O)CC` [CPT-11], in test [1], the “mean IC50 dose, SW948CPTH” value came to 38 ± 6.9 µg/mL and the “cross-resistance” value was “cross-resistant”. Also, the “resistance of SW948CPTL cells (in words)” value in test [2] was “showed resistance”. For the same molecule, in test [3], the “mean IC50 dose, SW948” value worked out at 3.0 ± 0.3 µg/mL.

Consider `COc1cc([C@@H]2c3cc4c(cc3[C@@H](O[C@@H]3O[C@@H]5CO[C@@H](C)O[C@H]5[C@H](O)[C@H]3O)[C@H]3COC(=O)[C@H]23)OCO4)cc(OC)c1O` [Etoposide, etoposide], for which, in test [1], the IC50 turned out to be 0.7 ± 0.2 µg/mL (≈ 1.19 µM) and the “cross-resistance” value is listed as “not cross-resistant”. In test [2], the IC50 was 1.6 ± 0.2 µg/mL (≈ 2.72 µM); the “resistance of SW948CPTL cells (in words)” value is recorded as “showed resistance”; the “fold change, SW948CPTL” value worked out at 2. The concentration for half-maximal inhibition (IC50) in test [3] was 0.8 ± 0.1 µg/mL (≈ 1.36 µM).

Turning to `COc1cccc2c1C(=O)c1c(O)c3c(c(O)c1C2=O)C[C@@](O)(C(=O)CO)C[C@@H]3O[C@H]1C[C@H](N)[C@H](O)[C@H](C)O1` [Doxorubicin, doxorubicin], the IC50 is 0.048 ± 0.008 µg/mL (≈ 0.0883 µM) in test [1] and 0.037 ± 0.008 µg/mL (≈ 0.0681 µM) in test [3]. Also, the “cross-resistance” value in test [1] is reported as “No resistant”.

As to `CC[C@@]1(O)C(=O)OCc2c1cc1n(c2=O)Cc2cc3ccccc3nc2-1` [CPT, camptothecin], in test [1], the IC50 was found to be 0.32 ± 0.02 µg/mL (≈ 0.919 µM); the “cross-resistance” value is recorded as “cross-resistant”; the “fold change, SW948CPTH” value was found to be 6. Besides, in test [2], the IC50 came to 0.14 µg/mL (≈ 0.402 µM); the “resistance of SW948CPTL cells (in words)” value is “showed resistance”; the “fold change, SW948CPTL” value was found to be 2.4. Further, the IC50 in test [3] came out at 0.057 ± 0.02 µg/mL (≈ 0.164 µM).

`N.N.[Cl][Pt][Cl]` [Cisplatin, cisplatin]: in test [1], the “mean IC50 dose, SW948CPTH” value was determined as 1.5 ± 0.15 µg/mL and the “cross-resistance” value is “No resistant”. In addition, in test [2], the “mean IC50 dose, SW948CPTL” value worked out at 2.2 ± 1.3 µg/mL; the “resistance of SW948CPTL cells (in words)” value is listed as “showed resistance”; the “fold change, SW948CPTL” value was determined as 1.7. The “mean IC50 dose, SW948” value in test [3] amounted to 1.3 ± 0.34 µg/mL.

Regarding `CC1(C)CCC2=C(O1)c1ccccc1C(=O)C2=O` [Lapachone], the figures for the IC50 in test [1] and in test [3] were 0.84 ± 0.21 µg/mL (≈ 3.47 µM) and 1.06 ± 0.16 µg/mL (≈ 4.38 µM), respectively. For the same molecule, the “cross-resistance” value in test [1] was “not cross-resistant”.
